Laboratory results: paper PMC10287695, “Non-covalent inhibitors of thioredoxin glutathione reductase with schistosomicidal activity in vivo” (Nature Communications, 2023)

Tests used:
S. mansoni adult worms = assay: GSH/GSSG ratio in ex vivo adult worms; assay type: cell-based; conditions: for Ratio GSH/GSSG / % Ratio GSH/GSSG: first data set (r117-133); for Ratio GSH/GSSG: baseline 55.82; for % Ratio GSH/GSSG: baseline = 100
Experimental: We assessed GSH/GSSG levels experimentally by treating S. mansoni adult worms with 50 µM of compounds, or respective controls 5 µM Auranofin, 50 µM PZQ or 50 µM MZM and 0.01% DMSO for 3 h. Worm homogenate was prepared by washing three times with PBS to remove residual compounds and ten volumes of ice cold 5% sulfosalicylic acid was added. Worms were manually homogenized on ice using VWR Pellet Mixer Adaptor. The worm suspension was centrifuged at 14000 × g, 4 °C for 10 min and the acid supernatants transferred. An equal volume of ice-cold neutralization buffer (500 mM HEPES, pH 8.0) was added to the acid supernatants.
GSH/GSSG assay was performed by diluting the acid supernatant (5-fold) with ice-cold dilution buffer (250 mM HEPES, pH 7.5). Using white opaque luminescence plate on ice, 25 µl of the diluted worm acid supernatant was added each well in triplicates. Total glutathione lysis reagent and GSSG lysis reagent, which contains alkylating agent N-ethylmaleimide (25 mM) were prepared following manufactures protocol and added to respective wells along with blank for background. Total glutathione lysis reagent or oxidized glutathione lysis reagent (25 µl) was added to respective wells containing worm acid supernatants and the plate was shaken for 5 min. Luciferin generation reagent (LGR) (50 µl) was added to all wells, briefly shaken and incubated at room temperature for 30 min. Luciferin detection reagent (LDR) (100 µl) was added to all wells, briefly shaken and incubated for 15 min at room temperature and the luminescence measured using microplate imager (BioTek Cytation3). GSH/GSSH ratio for DMSO control and compounds were calculated using (Net DMSO total glutathione RFU) – (Net DMSO GSSG RFU)/ (Net DMSO GSSG RFU)/2 and (Net inhibitor total glutathione RFU) – (Net inhibitor GSSG RFU)/ (Net inhibitor GSSG RFU)/2 respectively.

Human TrxR1 = molecular target: T1, Human TrxR1 (Homo sapiens, UniProt Q16881); assay: Human TrxR1 enzyme inhibition (DTNB reduction); assay type: biochemical; conditions: for % inhibition: hsTrxR; for % inhibition / hsTrxR % inhibition: 15 minutes pre-incubation
T1 construct: made in house
T1 sequence (Q16881 1-499 isoform Q16881-5): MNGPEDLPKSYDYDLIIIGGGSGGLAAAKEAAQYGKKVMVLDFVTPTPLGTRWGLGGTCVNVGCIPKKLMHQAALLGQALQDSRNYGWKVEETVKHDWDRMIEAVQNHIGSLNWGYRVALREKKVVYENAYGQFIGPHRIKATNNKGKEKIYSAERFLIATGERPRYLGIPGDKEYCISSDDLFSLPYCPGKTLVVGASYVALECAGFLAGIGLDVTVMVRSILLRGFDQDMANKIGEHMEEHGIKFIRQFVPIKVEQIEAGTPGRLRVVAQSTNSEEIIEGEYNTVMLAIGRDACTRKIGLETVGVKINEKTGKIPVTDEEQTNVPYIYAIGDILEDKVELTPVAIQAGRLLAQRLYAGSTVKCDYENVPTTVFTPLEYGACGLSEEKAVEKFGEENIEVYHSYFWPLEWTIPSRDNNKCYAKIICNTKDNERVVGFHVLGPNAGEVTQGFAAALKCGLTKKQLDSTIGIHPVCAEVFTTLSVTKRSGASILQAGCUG
Experimental: Recombinant TGR, human TrxR1, B. malayi (Bm)TrxR and human GR proteins were expressed and purified as described[20],[69],[79]. The codon optimized sequence for P. falciparum (PfTrxR, https://www.ncbi.nlm.nih.gov/protein/CAA60574.1/) with an N-terminal 6-His tag was synthesized and inserted into pET15b (GenScript) and expressed in BL21 (DE3) cells and purified as described for human GR[20]. TGR and TrxR enzyme inhibition assays were performed in triplicate at 25 °C as described[20] in 0.1 M potassium phosphate (pH 7.4), 10 mM EDTA, 100 µM NADPH and 0.01% Tween-20. […] The reaction was started with addition of an equal volume of DTNB (6 mM) and NADPH (100 µM) and the increase in A412 during the first 3 min was recorded. […] The reaction was preincubated for 15 min. Activity was initiated with the addition of 1 mM GSSG and 100 μM NADPH and initial rates of NADPH oxidation were monitored at 340 nm. The reactions were done in triplicate. The IC50 was calculated in GraphPad Prism.

Human GR = molecular target: T2, Human GR (Homo sapiens, UniProt P00390); assay: Human GR enzyme inhibition (GSSG reduction, NADPH oxidation); assay type: biochemical; conditions: for % inhibition: hGR
T2 construct: made in house
T2 sequence (P00390 44-522): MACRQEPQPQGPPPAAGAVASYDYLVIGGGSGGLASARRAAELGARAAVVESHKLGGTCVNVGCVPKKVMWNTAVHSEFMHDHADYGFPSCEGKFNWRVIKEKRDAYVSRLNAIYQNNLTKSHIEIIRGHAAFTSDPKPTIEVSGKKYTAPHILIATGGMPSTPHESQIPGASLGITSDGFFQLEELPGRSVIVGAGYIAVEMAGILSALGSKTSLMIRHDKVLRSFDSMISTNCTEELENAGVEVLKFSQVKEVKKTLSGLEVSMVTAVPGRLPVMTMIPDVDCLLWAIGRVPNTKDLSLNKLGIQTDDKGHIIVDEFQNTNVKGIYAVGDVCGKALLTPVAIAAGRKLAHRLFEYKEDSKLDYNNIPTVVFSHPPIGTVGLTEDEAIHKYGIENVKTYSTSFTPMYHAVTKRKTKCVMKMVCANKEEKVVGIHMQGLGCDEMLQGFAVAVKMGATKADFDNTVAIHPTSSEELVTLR
Experimental: Recombinant TGR, human TrxR1, B. malayi (Bm)TrxR and human GR proteins were expressed and purified as described[20],[69],[79]. The codon optimized sequence for P. falciparum (PfTrxR, https://www.ncbi.nlm.nih.gov/protein/CAA60574.1/) with an N-terminal 6-His tag was synthesized and inserted into pET15b (GenScript) and expressed in BL21 (DE3) cells and purified as described for human GR[20]. TGR and TrxR enzyme inhibition assays were performed in triplicate at 25 °C as described[20] in 0.1 M potassium phosphate (pH 7.4), 10 mM EDTA, 100 µM NADPH and 0.01% Tween-20. TGR, human TrxR1 and BmTrxR (all at 4 nM) and PfTrxR (50 nM) were preincubated with the compounds for 15 min. The reaction was started with addition of an equal volume of DTNB (6 mM) and NADPH (100 µM) and the increase in A412 during the first 3 min was recorded. […] […] Activity was initiated with the addition of 1 mM GSSG and 100 μM NADPH and initial rates of NADPH oxidation were monitored at 340 nm. The reactions were done in triplicate. The IC50 was calculated in GraphPad Prism.

[1] = 15 minutes pre-incubation, compound 15 µM
[2] = 15 minutes pre-incubation, compound 30 µM
[3] = 15 minutes pre-incubation, compound 66.7 µM
[4] = 6 hours pre-incubation, compound 15 µM
[5] = 6 hours pre-incubation, compound 30 µM
[6] = 6 hours pre-incubation, compound 66.7 µM

| Compound | % inhibition (Human GR; [1]) [%] | % inhibition (Human GR; [2]) [%] | % inhibition (Human GR; [3]) [%] | % inhibition (Human GR; [4]) [%] | % inhibition (Human GR; [5]) [%] | % inhibition (Human GR; [6]) [%] | % inhibition (Human TrxR1; compound 15 µM) [%] | % inhibition (Human TrxR1; compound 30 µM) [%] | % inhibition (Human TrxR1; compound 66.7 µM) [%] | further results |
| --- | --- | --- | --- | --- | --- | --- | --- | --- | --- | --- |
| CC(=O)OC[C@H]1O[C@@H]([S-])[C@H](OC(C)=O)[C@@H](OC(C)=O)[C@@H]1OC(C)=O.CCP(CC)CC.[Au+] [AF, auranofin, reference compound] |  |  |  |  |  |  |  |  |  | Ratio GSH/GSSG (S. mansoni adult worms; 1 hr): 8.34; % Ratio GSH/GSSG (S. mansoni adult worms; 1 hr): 14.9481%; Ratio GSH/GSSG (S. mansoni adult worms; 3 hr): 4.85; % Ratio GSH/GSSG (S. mansoni adult worms; 3 hr): 8.693%; Decrease (%) in GSH/GSSG ratio (S. mansoni adult worms; adult worms, 3 h exposure to compounds at 50 μM): 91%; IC50 (Human TrxR1; 15 min preincubation (enzyme + 100 µM NADPH + compound), read-out: Human TrxR1 IC50): 20 nM |
| Cc1oc(-c2ccccc2)nc1CN[C@@H]1C[C@@H]2C[C@H]([C@H]1C)C2(C)C [C3] | -2.234 | -5.497 | -7.805 | -0.8033 | -0.8345 | -0.3955 | 11.8305 | 16.5848 | 23.0303 |  |
| Cc1oc(-c2ccc3ccccc3c2)nc1CNC1CCCCCC1 [C5] | -0.1784 | -0.6429 | -2.462 | -0.4334 | -1.271 | -0.3907 | 4.223 | 2.584 | 4.769 |  |
| C[C@@H]1[C@H]2C[C@@H](C[C@H]1NCc1nc3ccccc3n1C)C2(C)C [C12] |  |  |  |  |  |  |  |  |  | hGR % inhibition (Human GR; 15 minutes pre-incubation, 15 µM): -0.9179%; hGR % inhibition (Human GR; 15 minutes pre-incubation, 30 µM): -2.193%; hGR % inhibition (Human GR; 15 minutes pre-incubation, 66.7 µM): -0.3071%; hGR % inhibition (Human GR; 6 hours pre-incubation, 15 µM): -3.5243%; hGR % inhibition (Human GR; 6 hours pre-incubation, 30 µM): -2.022%; hGR % inhibition (Human GR; 6 hours pre-incubation, 66.7 µM): -0.874%; hsTrxR % inhibition (Human TrxR1; 15 µM): 0.08203%; hsTrxR % inhibition (Human TrxR1; 30 µM): 0.1317%; hsTrxR % inhibition (Human TrxR1; 66.7 µM): 0.4216% |
